This note sets out measurements from patent publication US10112907B2, “Substituted indazoles for treating tendon and/or ligament injuries” (NOVARTIS AG, priority 2016, dated 2018).

What is called EC50 is the concentration at which the effect is half-maximal.

Bounds are passed on as bounds.

One experiment deals with Scleraxis (Scx) gene transcriptional activation in TT-D6 Scx-luciferase (ScxL) cell line. In words: SCX-LUC in vitro assay (Scx-luciferase reporter). It is filed as cell-based. Conditions: Mus musculus, 96 h; Table 3; four days; read-out: Scx-Luc (EC50 μM). (A reporter such as luciferase makes a cellular process visible.)
For `Cc1cc(S(=O)(=O)N[C@H]2C[C@H](O)C2)ccc1-c1ccc2[nH]nc(N)c2c1C` [Example 9, 4-(3-amino-4-methyl-1H-indazol-5-yl)-N-((1r,3r)-3-hydroxycyclobutyl)-3-methylbenzenesulfonamide], the half-maximal effective concentration (EC50) came to 4.96 µM.

As to `Cc1cc(S(=O)(=O)N2CC(F)=C[C@H]2CO)ccc1-c1ccc2[nH]nc(N)c2c1C` [Example 33, (S)-(1-((4-(3-amino-4-methyl-1H-indazol-5-yl)-3-methylphenyl)sulfonyl)-4-fluoro-2,5-dihydro-1H-pyrrol-2-yl)methanol], the EC50 came to 0.17 µM.

With `Nc1n[nH]c2ccc(-c3ccc(S(=O)(=O)N4CC(F)(F)C[C@H]4CO)cc3Cl)c(F)c12` [Example 46, (S)-(1-((4-(3-amino-4-fluoro-1H-indazol-5-yl)-3-chlorophenyl)sulfonyl)-4,4-difluoropyrrolidin-2-yl)methanol], the EC50 was found to be 1.05 µM.

Turning to `Cc1cc(S(=O)(=O)N(C)[C@@H]2CCC[C@@H]2O)ccc1-c1ccc2[nH]nc(N)c2c1C` [Example 84, 4-(3-amino-4-methyl-1H-indazol-5-yl)-N-((1R,2S)-2-hydroxycyclopentyl)-N,3-dimethylbenzenesulfonamide], the EC50 stood at 1.69 µM.

`Cc1cc(S(=O)(=O)N2CCC[C@H]2CO)ccc1-c1ccc2[nH]nc(N)c2c1Cl` [Example 28, (S)-(1-((4-(3-amino-4-chloro-1H-indazol-5-yl)-3-methylphenyl)sulfonyl)pyrrolidin-2-yl)methanol]: the EC50 was 0.436 µM.

As to `Cc1cc(S(=O)(=O)NC2CC(F)(F)C2)ccc1-c1ccc2[nH]nc(N)c2c1Cl` [Example 66, 4-(3-amino-4-chloro-1H-indazol-5-yl)-N-(3,3-difluorocyclobutyl)-3-methylbenzenesulfonamide], the EC50 is 1.08 µM.

As to `Cc1cc(S(=O)(=O)N2CCC[C@@H]2CO)ccc1-c1ccc2[nH]nc(N)c2c1C` [Example 20, (R)-(1-((4-(3-amino-4-methyl-1H-indazol-5-yl)-3-methylphenyl)sulfonyl)pyrrolidin-2-yl)methanol], the EC50 amounted to 0.723 µM.

Consider `Nc1n[nH]c2ccc(-c3ccc(S(=O)(=O)N[C@H]4C[C@](O)(C(F)(F)F)C4)cc3Cl)c(Cl)c12` [Example 64, 4-(3-amino-4-chloro-1H-indazol-5-yl)-3-chloro-N-((1s,3s)-3-hydroxy-3-(trifluoromethyl)cyclobutyl)benzenesulfonamide], for which the EC50 amounted to 0.474 µM.

Regarding `Cc1cc(S(=O)(=O)N[C@@H]2CCC[C@@H]2O)ccc1-c1ccc2[nH]nc(N)c2c1Cl` [Example 29, 4-(3-amino-4-chloro-1H-indazol-5-yl)-N-((1R,2S)-2-hydroxycyclopentyl)-3-methylbenzenesulfonamide], the EC50 stood at 0.277 µM.

As to `Cc1cc(S(=O)(=O)N2CC(O)C2)ccc1-c1ccc2[nH]nc(N)c2c1C` [Example 11, 1-((4-(3-amino-4-methyl-1H-indazol-5-yl)-3-methylphenyl)sulfonyl)azetidin-3-ol], the EC50 is 4.13 µM.

Turning to `Cc1cc(S(=O)(=O)N2CC(F)(F)C[C@H]2C(N)=O)ccc1-c1ccc2[nH]nc(N)c2c1C` [Example 81, (S)-1-((4-(3-amino-4-methyl-1H-indazol-5-yl)-3-methylphenyl)sulfonyl)-4,4-difluoropyrrolidine-2-carboxamide], the EC50 stood at 0.372 µM.

Take `Cc1cc(S(=O)(=O)N[C@H]2CCC[C@@]2(C)O)ccc1-c1ccc2[nH]nc(N)c2c1C` [Example 59, 4-(3-amino-4-methyl-1H-indazol-5-yl)-N-((1S,2R)-2-hydroxy-2-methylcyclopentyl)-3-methylbenzenesulfonamide]: the EC50 is 3.32 µM.

With `Cc1c(-c2ccc(S(=O)(=O)N[C@@H]3CCC[C@@H]3O)cc2Cl)ccc2[nH]nc(N)c12` [Example 39, 4-(3-amino-4-methyl-1H-indazol-5-yl)-3-chloro-N-((1R,2S)-2-hydroxycyclopentyl)benzenesulfonamide], the EC50 was found to be 0.362 µM.

Turning to `Cc1cc(S(=O)(=O)N2C[C@@H](F)[C@@H](F)C2)ccc1-c1ccc2[nH]nc(N)c2c1C` [Example 82, Meso-5-(4-(((3R,4S)-3,4-difluoropyrrolidin-1-yl)sulfonyl)-2-methylphenyl)-4-methyl-1H-indazol-3-amine], the EC50 was determined as 0.524 µM.

`Cc1cc(S(=O)(=O)NC2CC(O)(c3ccccc3)C2)ccc1-c1ccc2[nH]nc(N)c2c1C` (stereo not shown) [Example 52, 4-(3-amino-4-methyl-1H-indazol-5-yl)-N-(3-hydroxy-3-phenylcyclobutyl)-3-methylbenzenesulfonamide]: the EC50 worked out at 0.578 µM.

`Cc1cc(S(=O)(=O)N2CC[C@H]2CO)ccc1-c1ccc2[nH]nc(N)c2c1C` [Example 10, (S)-(1-((4-(3-amino-4-methyl-1H-indazol-5-yl)-3-methylphenyl)sulfonyl)azetidin-2-yl)methanol]: the EC50 was 1.79 µM.

In the case of `Cc1cc(S(=O)(=O)N(C)C2CC(O)(C(F)(F)F)C2)ccc1-c1ccc2[nH]nc(N)c2c1C` (stereo not shown) [Example 83, 4-(3-amino-4-methyl-1H-indazol-5-yl)-N-((1s,3s)-3-hydroxy-3-(trifluoromethyl)cyclobutyl)-N,3-dimethylbenzenesulfonamide], the EC50 is 0.467 µM.

Turning to `Cc1c(-c2ccc(S(=O)(=O)N3CC(F)(F)C[C@H]3CO)cc2Cl)ccc2[nH]nc(N)c12` [Example 56, (S)-(1-((4-(3-amino-4-methyl-1H-indazol-5-yl)-3-chlorophenyl)sulfonyl)-4,4-difluoropyrrolidin-2-yl)methanol], the EC50 stood at 0.764 µM.

In the case of `Cc1c(-c2ccc(S(=O)(=O)N3CC(F)(F)C[C@H]3CO)cc2F)ccc2[nH]nc(N)c12` [Example 42, (S)-(1-((4-(3-amino-4-methyl-1H-indazol-5-yl)-3-fluorophenyl)sulfonyl)-4,4-difluoropyrrolidin-2-yl)methanol], the EC50 was 0.814 µM.

`Cc1cc(S(=O)(=O)N2CCC(C)(O)C2)ccc1-c1ccc2[nH]nc(N)c2c1C` (stereo not shown) [Example 57, 1-((4-(3-amino-4-methyl-1H-indazol-5-yl)-3-methylphenyl)sulfonyl)-3-methylpyrrolidin-3-ol]: the EC50 worked out at 2.71 µM.

Take `COc1c(-c2ccc(S(=O)(=O)NC3CC(O)(C(F)(F)F)C3)cc2C)ccc2[nH]nc(N)c12` (stereo not shown) [Example 70, 4-(3-amino-4-methoxy-1H-indazol-5-yl)-N-((1s,3s)-3-hydroxy-3-(trifluoromethyl)cyclobutyl)-3-methylbenzenesulfonamide]: the EC50 was determined as 0.282 µM.

`Cc1cc(S(=O)(=O)N2C[C@@H](F)C[C@H]2CO)ccc1-c1ccc2[nH]nc(N)c2c1C` [Example 92, ((2S,4S)-1-((4-(3-amino-4-methyl-1H-indazol-5-yl)-3-methylphenyl)sulfonyl)-4-fluoropyrrolidin-2-yl)methanol]: the EC50 was 1.01 µM.

For `Cc1cc(S(=O)(=O)N[C@@H]2CCC[C@H]2O)ccc1-c1ccc2[nH]nc(N)c2c1C` [Example 15, 4-(3-amino-4-methyl-1H-indazol-5-yl)-N-((1R,2R)-2-hydroxycyclopentyl)-3-methylbenzenesulfonamide], the EC50 stood at 3.05 µM.

Still in this experiment, the particulars now being: Mus musculus; Table 1; read-out: Scx-Luc (EC50 uM).
For `Cc1cnc(Nc2ccc(OCCN3CCCC3)cc2)nc1Nc1cccc(S(=O)(=O)NC(C)(C)C)c1` [reference compound], the EC50 was 0.62 µM.

Still in this experiment, the particulars now being: Mus musculus; assays described above (Scx-Luc and ex vivo); read-out: EC50 in the assays described above.
Regarding `Cc1cc(S(=O)(=O)NC2CCN(C)CC2)ccc1-c1ccc2[nH]nc(N)c2c1C` [4-(3-amino-4-methyl-1H-indazol-5-yl)-3-methyl-N-(1-methylpiperidin-4-yl)benzenesulfonamide], the concentration giving a half-maximal response (EC50) was greater than 10 µM.
